In the experiment the target is T1, human 11βHSD1 enzyme (Homo sapiens, UniProt P28845).
T1 construct: baculovirus expressed N terminal 6-His tagged full length human 11βHSD1 enzyme; 6-His (N); made in house
The experiment can be described thus: 11βHSD1 cortisone to cortisol conversion, competitive HTRF assay. The class given is biochemical. The conditions noted are these: for inhibition at 30 µM: human 11-βHSD, test concentration of 30 μM of compound; for IC50: recombinant N terminal 6-His tagged full length human 11βHSD1, cortisone 160 nM, 25 minutes at 37° C. The procedure: The evaluation of compounds described herein was carried out using a baculovirus expressed N terminal 6-His tagged full length human 11βHSD1 enzyme(*1). The enzyme was purified from a detergent solubilised cell lysate, using a copper chelate column. Inhibitors of 11βHSD1 reduce the conversion of cortisone to cortisol, which is identified by an increase in signal, in the above assay.
Compounds to be tested were dissolved in dimethyl sulphoxide (DMSO) to 10 mM and diluted further in assay buffer containing 1% DMSO to 10 fold the final assay concentration. Diluted compounds were then plated into black 384 well plates (Matrix, Hudson N.H., USA).
Fluorescence at 665 nm and 620 nm was measured and the 665 nm:620 nm ratio calculated using an Envision plate reader.
For orientation: Time-resolved FRET reads energy transfer from a long-lived donor to a nearby acceptor.

T1 sequence (P28845 whole entry): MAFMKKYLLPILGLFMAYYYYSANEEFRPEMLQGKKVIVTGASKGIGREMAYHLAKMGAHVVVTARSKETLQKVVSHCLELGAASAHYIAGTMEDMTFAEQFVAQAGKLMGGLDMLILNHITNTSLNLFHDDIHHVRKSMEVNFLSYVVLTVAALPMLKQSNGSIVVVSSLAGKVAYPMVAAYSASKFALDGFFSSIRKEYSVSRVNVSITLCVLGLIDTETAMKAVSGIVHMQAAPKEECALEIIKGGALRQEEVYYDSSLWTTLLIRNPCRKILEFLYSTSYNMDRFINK

`O=C(N[C@H]1C2CC3CC1C[C@@](O)(C3)C2)c1cncnc1C1CC1` [Example 3, 4-cyclopropyl-N-[(2r,5s)-5-hydroxyadamantan-2-yl]pyrimidine-5-carboxamide]: the inhibition – broadly, the drop in the measured response relative to a control, in per cent – at 30 µM worked out at 106% and the IC50 – broadly, the point on the concentration scale where inhibition reaches its midpoint – was found to be 370 nM.

Take `CC(C)(C)c1ncncc1C(=O)N[C@H]1C2CC3CC1C[C@@](O)(C3)C2` [Example 7]: the inhibition at 30 µM is 88.3%.

With `CSc1ncc(C(=O)N[C@H]2C3CC4CC2C[C@@](O)(C4)C3)c(C2CC2)n1` [Example 11, 4-Cyclopropyl-N-[(2r,5s)-5-hydroxyadamantan-2-yl]-2-methylsulfanyl-pyrimidine-5-carboxamide], the inhibition at 30 µM came to 97.5% and the IC50 came to 70 nM.

Turning to `Cc1ncc(C(=O)NC2C3CC4CC(C3)CC2C4)c(C2CC2)n1` (centres unmarked) [Example 12, N-(2-adamantyl)-4-cyclopropyl-2-methyl-pyrimidine-5-carboxamide], the inhibition at 30 µM stood at 97.3% and the IC50 worked out at 45 nM.

On to `O=C(NC1C2CC3CC(C2)CC1C3)c1cnc(N2CCOCC2)nc1C1CC1` (centres unmarked) [Example 13, N-(2-adamantyl)-4-cyclopropyl-2-morpholino-pyrimidine-5-carboxamide], for which the inhibition at 30 µM worked out at 112% and the IC50 came to 14 nM.

On to `CC(C)(C)c1nc(N2CCOCC2)ncc1C(=O)NC1C2CC3CC(C2)CC1C3` (centres unmarked) [Example 14, N-(2-Adamantyl)-4-tert-butyl-2-morpholin-4-ylpyrimidine-5-carboxamide], for which the inhibition at 30 µM stood at 108%.

For the compound `Cc1nc(N2CCOCC2)ncc1C(=O)NC1C2CC3CC(C2)CC1C3` (centres unmarked) [Example 15, N-(2-adamantyl)-4-methyl-2-morpholin-4-ylpyrimidine-5-carboxamide], the inhibition at 30 µM turned out to be 95.4%.

As to `CCCSc1ncc(C(=O)N[C@H]2C3CC4CC2C[C@@](O)(C4)C3)c(SCCC)n1` [Example 16, N-[(2r,5s)-5-hydroxyadamantan-2-yl]-2,4-bis(propylsulfanyl)pyrimidine-5-carboxamide], the inhibition at 30 µM is 95.8% and the IC50 stood at 2 nM.

In the case of `CCCSc1ncc(C(=O)N[C@H]2C3CC4CC2C[C@@](O)(C4)C3)c(N(C)C)n1` [Example 18, 4-Dimethylamino-N-[(2r,5s)-5-hydroxyadamantan-2-yl]-2-propylsulfanylpyrimidine-5-carboxamide], the inhibition at 30 µM is 98.5% and the IC50 stood at 3 nM.

For the compound `CCCSc1nc(N2CCC[C@@H](CC(=O)OC)C2)ncc1C(=O)NC1CCCCC1` [Example 19, (S)-Methyl 2-(1-(5-(cyclohexylcarbamoyl)-4-(propylthio)pyrimidin-2-yl)piperidin-3-yl)acetate], the inhibition at 30 µM worked out at 100% and the IC50 came to 14 nM.

As for `CCCSc1nc(N2CCC[C@@H](CC(=O)O)C2)ncc1C(=O)NC1CCCCC1` [Example 20, {(3S)-1-[5-(Cyclohexylcarbamoyl)-4-(propylthio)pyrimidin-2-yl]piperidin-3-yl}acetic acid], the inhibition at 30 µM stood at 97.6% and the half-inhibitory concentration (IC50) is 2 nM.

For the compound `CCCSc1ncc(C(=O)N[C@H]2C3CC4CC2C[C@@](O)(C4)C3)c(NC)n1` [Example 22, N-[(2r,5s)-5-hydroxyadamantan-2-yl]-4-methylamino-2-propylsulfanylpyrimidine-5-carboxamide], the inhibition at 30 µM stood at 89.5%.

Turning to `CCCSc1nc(N2C[C@@H](C)O[C@@H](C)C2)ncc1C(=O)N[C@H]1C2CC3CC1C[C@@](O)(C3)C2` [Example 23, 2-[(2s,6r)-2,6-Dimethylmorpholin-4-yl]-N-[(2r,5s)-5-hydroxyadamantan-2-yl]-4-propylsulfanylpyrimidine-5-carboxamide], the inhibition at 30 µM came to 97.4%.

As for `CCCSc1ncc(C(=O)N[C@H]2C3CC4CC2C[C@@](O)(C4)C3)c(N2C[C@@H](C)O[C@@H](C)C2)n1` [Example 24, 4-[(2S,6R)-2,6-Dimethylmorpholin-4-yl]-N-[(2r,5s)-5-hydroxyadamantan-2-yl]-2-propylsulfanylpyrimidine-5-carboxamide], the inhibition at 30 µM was determined as 68%.

Regarding `CCCSc1ncc(C(=O)N[C@H]2C3CC4CC2C[C@@](O)(C4)C3)c(N2CCN(C(C)=O)CC2)n1` [Example 25, 4-(4-Acetylpiperazin-1-yl)-N-[(2r,5 s)-5-hydroxyadamantan-2-yl]-2-propylsulfanylpyrimidine-5-carboxamide], the inhibition at 30 µM was 101%.

As for `CCCSc1nc(N2CCN(C(C)=O)CC2)ncc1C(=O)N[C@H]1C2CC3CC1C[C@@](O)(C3)C2` [Example 26, 2-(4-Acetylpiperazin-1-yl)-N-[(2r,5 s)-5-hydroxyadamantan-2-yl]-4-propylsulfanylpyrimidine-5-carboxamide], the inhibition at 30 µM was determined as 89%.

In the case of `CCCSc1nc(N2CCN(C(C)=O)CC2)ncc1C(=O)NC1C2CC3CC(C2)CC1C3` (centres unmarked) [Example 27, 2-(4-Acetylpiperazin-1-yl)-N-(2-adamantyl)-4-propylsulfanyl-pyrimidine-5-carboxamide], the inhibition at 30 µM worked out at 95.5%.

Take `CCCSc1nc(N2CCN(S(C)(=O)=O)CC2)ncc1C(=O)NC1C2CC3CC(C2)CC1C3` (centres unmarked) [Example 28, N-(2-adamantyl)-2-(4-methylsulfonylpiperazin-1-yl)-4-propylsulfanyl-pyrimidine-5-carboxamide]: the inhibition at 30 µM came out at 103%.

Turning to `CCCSc1nc(N2CCN(C(=O)N(C)C)CC2)ncc1C(=O)NC1C2CC3CC(C2)CC1C3` (centres unmarked) [Example 29, N-(2-adamantyl)-2-[4-(dimethylcarbamoyl)piperazin-1-yl]-4-propylsulfanyl-pyrimidine-5-carboxamide], the inhibition at 30 µM was 100% and the IC50 was determined as 13 nM.

On to `COc1ncc(C(=O)N[C@H]2C3CC4CC2C[C@@](O)(C4)C3)c(C2CC2)n1` [Example 33, 4-Cyclopropyl-N-[(2r,5s)-5-hydroxyadamantan-2-yl]-2-methoxypyrimidine-5-carboxamide], for which the inhibition at 30 µM is 97.5% and the IC50 amounted to 33 nM.

Take `CNc1ncc(C(=O)N[C@H]2C3CC4CC2C[C@@](O)(C4)C3)c(C2CC2)n1` [Example 34, 4-Cyclopropyl-N-[(2r,5s)-5-hydroxyadamantan-2-yl]-2-methylaminopyrimidine-5-carboxamide]: the inhibition at 30 µM amounted to 98%.

With `O=C(N[C@H]1C2CC3CC1C[C@@](O)(C3)C2)c1cnc(N2CCSCC2)nc1C1CC1` [Example 35, 4-Cyclopropyl-N-[(2r,5s)-5-hydroxyadamantan-2-yl]-2-thiomorpholin-4-ylpyrimidine-5-carboxamide], the inhibition at 30 µM turned out to be 106%.

With `O=C(N[C@H]1C2CC3CC1C[C@@](O)(C3)C2)c1cnc(N2CC[S+]([O-])CC2)nc1C1CC1` [Example 36, 4-Cyclopropyl-N-[(2r,5s)-5-hydroxyadamantan-2-yl]-2-(1-oxo-1,4-thiazinan-4-yl)pyrimidine-5-carboxamide], the inhibition at 30 µM worked out at 99.5%.

As to `O=C(N[C@H]1C2CC3CC1C[C@@](O)(C3)C2)c1cnc(N2CCS(=O)(=O)CC2)nc1C1CC1` [Example 37, 4-Cyclopropyl-2-(1,1-dioxo-1,4-thiazinan-4-yl)-N-[(2r,5s)-5-hydroxyadamantan-2-yl]pyrimidine-5-carboxamide], the inhibition at 30 µM amounted to 93.5%.

Regarding `O=C(N[C@H]1C2CC3CC1C[C@@](O)(C3)C2)c1cnc(N2CCSCC2)nc1C1CCC1` [Example 41, 4-Cyclobutyl-N-[(2r,5s)-5-hydroxyadamantan-2-yl]-2-thiomorpholin-4-ylpyrimidine-5-carboxamide], the inhibition at 30 µM worked out at 94%.

The values are drawn from patent US20090264401A1, “SUBSTITUTED PYRIMIDIN-5-CARBOXAMIDES 281” (AstraZeneca AB, priority 2008, published 2009).
